Source: ChEMBL document CHEMBL5143672, “New diarylpentanoids and chalcones as potential antimicrobial adjuvants” (2022)
In brackets after ≈: the same amount, converted by molar mass.

Columns and labels:
Staphylococcus aureus [1] = assay: Antibacterial activity against methicillin and ofloxacin-resistant Staphylococcus aureus 272123 assessed as inhibition of bacterial growth by broth microdilution method; format: functional
Staphylococcus aureus [2] = assay: Inhibition of biofilm formation in Staphylococcus aureus 272123 at 100 uM incubated for 48 hrs by crystal violet staining based analysis; format: functional
Escherichia coli [3] = assay: Antimicrobial adjuvant activity against ESBL-producing Escherichia coli SA/2 assessed as potentiation of cefotaxime-induced antibacterial activity by measuring fold reduction in cefotaxime MIC at 64 ug/ml by broth microdilution method; format: functional; details: dose 64 µg/ml
[4] = Inhibition of Multidrug resistance efflux pump in Staphylococcus aureus 272123 assessed as relative fluorescence index using ethidium bromide as substrate at 50 uM by fluorescence based analysis
Aspergillus fumigatus = assay: Antifungal activity against Aspergillus fumigatus ATCC 204305 assessed as inhibition of fungal growth by broth microdilution method; format: functional
Candida albicans [5] = assay: Antifungal activity against Candidia albicans ATCC 10231 assessed as inhibition of fungal growth by broth microdilution method; format: functional
Staphylococcus aureus [6] = assay: Inhibition of biofilm formation in Staphylococcus aureus ATCC 25923 at 100 uM incubated for 48 hrs by crystal violet staining based analysis; format: functional
Pseudomonas aeruginosa [7] = assay: Antibacterial activity against Pseudomonas aeruginosa ATCC 27853 assessed as inhibition of bacterial growth by broth microdilution method; format: functional
Salmonella typhimurium = assay: Antibacterial activity against Salmonella enterica serovar typhimurium SL1344 (SE03) assessed as inhibition of bacterial growth by broth microdilution method; format: functional, Salmonella enterica subsp. enterica serovar Typhimurium
[8] = system: Salmonella enterica subsp. enterica serovar Typhimurium; assay: Inhibition of Multidrug resistance efflux pump in Salmonella enterica serovar typhimurium SL1344 (SE03) assessed as relative fluorescence index using ethidium bromide as substrate at 50 uM by fluorescence based analysis
Trichophyton rubrum = assay: Antifungal activity against Trichophyton rubrum FF5 assessed as inhibition of fungal growth by broth microdilution method; format: functional
[9] = Inhibition of quorum sensing system in Chromobacterium violaceum CV026 assessed as reduction in pigment production co-cultured with Sphingomonas paucimobilis Ezf 10-17 for 24 to 48 hrs; details: time 24-48 hrs
Escherichia coli [10] = assay: Antibacterial activity against Escherichia coli ATCC 25922 assessed as inhibition of bacterial growth by broth microdilution method; format: functional
Enterococcus faecalis [11] = assay: Antibacterial activity against Enterococcus faecalis ATCC 29212 assessed as inhibition of bacterial growth by broth microdilution method; format: functional
Staphylococcus aureus [12] = assay: Antibacterial activity against Staphylococcus aureus ATCC 25923 assessed as inhibition of bacterial growth by broth microdilution method; format: functional
Serratia marcescens = assay: Inhibition of quorum sensing system in Serratia marcescens AS-1 assessed as reduction in pigment production incubated for 24 to 48 hrs; details: time 24-48 hrs
[13] = Inhibition of quorum sensing system in Chromobacterium violaceum wild type 85 assessed as reduction in pigment production incubated for 24 to 48 hrs; details: time 24-48 hrs
Enterococcus faecalis [14] = assay: Antimicrobial adjuvant activity against Enterococcus faecalis B3/101 assessed as potentiation of vancomycin-induced antibacterial activity by measuring fold reduction in vancomycin MIC at 64 ug/ml by broth microdilution method; format: functional; details: dose 64 µg/ml
Candida albicans [15] = assay: Antifungal activity against Candida albicans ATCC 10231 assessed as inhibition of fungal growth incubated for 18 hrs by optical density based analysis; format: functional
[16] = Inhibition of Multidrug resistance efflux pump in Staphylococcus aureus 272123 assessed as relative fluorescence index using ethidium bromide as substrate at 25 uM by fluorescence based analysis
Enterobacter cloacae = assay: Antibacterial activity against Enterobacter cloacae 45301 assessed as inhibition zone incubated for 24 hrs by agar plate method; format: functional
Pseudomonas aeruginosa [17] = assay: Antibacterial activity against Pseudomonas aeruginosa ATCC 27853 assessed as inhibition zone incubated for 24 hrs by disc diffusion method; format: functional
Klebsiella pneumoniae = assay: Antibacterial activity against Klebsiella pneumoniae ATCC 13883 assessed as inhibition zone incubated for 24 hrs by disc diffusion method; format: functional
Escherichia coli [18] = assay: Antibacterial activity against Escherichia coli ATCC 25922 assessed as inhibition zone incubated for 24 hrs by disc diffusion method; format: functional
[19] = system: Staphylococcus epidermidis; assay: Antibacterial activity against Staphylococcus epidermidis ATCC 12228 assessed as inhibition zone incubated for 24 hrs by disc diffusion method; format: functional
Staphylococcus aureus [20] = assay: Antibacterial activity against Staphylococcus aureus ATCC 25923 assessed as inhibition zone incubated for 24 hrs by disc diffusion method; format: functional
Micrococcus luteus = assay: Antibacterial activity against Micrococcus luteus 28001 assessed as inhibition zone incubated for 24 hrs by agar plate method; format: functional
[21] = system: Salmonella enterica subsp. enterica serovar Typhimurium; assay: Inhibition of Multidrug resistance efflux pump in Salmonella enterica serovar typhimurium SL1344 (SE03) assessed as relative fluorescence index using ethidium bromide as substrate at 25 uM by fluorescence based analysis

SMILES: COc1ccccc1/C=C1\CCc2ccccc2C1=O
- MIC (Staphylococcus aureus [1]): > 64 µg/mL
- inhibition at 100 µM (Staphylococcus aureus [2]): 83.3%
- fold change (FC) (Escherichia coli [3]): 2
- RFU [4]: 0.88
- MIC (Aspergillus fumigatus): > 128 µg/mL
- MIC (Candida albicans [5]): > 128 µg/mL
- inhibition at 100 µM (Staphylococcus aureus [6]): 0%
- MIC (Pseudomonas aeruginosa [7]): > 64 µg/mL
- MIC (Salmonella typhimurium): > 64 µg/mL
- RFU [8]: 1.32
- MIC (Trichophyton rubrum): > 128 µg/mL
- Activity [9]: 48 mm
- MIC (Escherichia coli [10]): > 64 µg/mL
- MIC (Enterococcus faecalis [11]): > 64 µg/mL
- MIC (Staphylococcus aureus [12]): > 64 µg/mL
- Activity (Serratia marcescens): 0 mm
- Activity [13]: 0 mm
- fold change (FC) (Enterococcus faecalis [14]): 2

SMILES: COc1cc(OC)c2c(c1)OC/C(=C\c1ccccc1)C2=O
- MIC (Candida albicans [15]): 25 µM (≈ 7.41 µg/mL)

SMILES: COC(=O)[C@H]1[C@H]2C[C@@H]3c4[nH]c5cc(OC)ccc5c4CCN3C[C@H]2C[C@@H](OC(=O)c2cc(OC)c(OC)c(OC)c2)[C@@H]1OC [RESERPINE]
- inhibition at 100 µM (Staphylococcus aureus [2]): 72.1%
- inhibition at 100 µM (Staphylococcus aureus [6]): 22.3%
- RFU [16]: 0.35

SMILES: COc1cccc(/C=C2\COC/C(=C\c3cccc(OC)c3OC)C2=O)c1OC
- MIC (Staphylococcus aureus [1]): > 64 µg/mL
- inhibition at 100 µM (Staphylococcus aureus [2]): 46.9%
- fold change (FC) (Escherichia coli [3]): 16
- RFU [4]: 0.44
- MIC (Aspergillus fumigatus): > 128 µg/mL
- MIC (Candida albicans [5]): > 128 µg/mL
- inhibition at 100 µM (Staphylococcus aureus [6]): 0%
- MIC (Pseudomonas aeruginosa [7]): > 64 µg/mL
- MIC (Salmonella typhimurium): > 64 µg/mL
- RFU [8]: 0.12
- MIC (Trichophyton rubrum): > 128 µg/mL
- Activity [9]: 31 mm
- MIC (Escherichia coli [10]): > 64 µg/mL
- MIC (Enterococcus faecalis [11]): > 64 µg/mL
- MIC (Staphylococcus aureus [12]): > 64 µg/mL
- Activity (Serratia marcescens): 0 mm
- Activity [13]: 0 mm
- fold change (FC) (Enterococcus faecalis [14]): 32

SMILES: O=C1/C(=C/c2ccccc2Br)CC/C1=C\c1ccccc1Br
- inhibition zone (IZ) (Enterobacter cloacae): 10 mm

SMILES: COc1cccc(/C=C2\CCc3ccccc3C2=O)c1
- inhibition zone (IZ) (Pseudomonas aeruginosa [17]): 18 mm
- inhibition zone (IZ) (Klebsiella pneumoniae): 18 mm
- inhibition zone (IZ) (Escherichia coli [18]): 17 mm
- inhibition zone (IZ) [19]: 15 mm
- inhibition zone (IZ) (Staphylococcus aureus [20]): 18 mm

SMILES: COc1cc(/C=C2\CCC/C(=C\c3cc(OC)c(OC)c(OC)c3)C2=O)cc(OC)c1OC
- inhibition zone (IZ) (Enterobacter cloacae): 10 mm
- inhibition zone (IZ) (Micrococcus luteus): 9 mm

SMILES: N#CC(C#N)=NNc1cccc(Cl)c1
- RFU [21]: 0.3

SMILES: COc1ccccc1/C=C1\CCC/C(=C\c2ccccc2OC)C1=O
- MIC (Staphylococcus aureus [1]): > 64 µg/mL
- inhibition at 100 µM (Staphylococcus aureus [2]): 65.9%
- RFU [4]: 0.48
- MIC (Aspergillus fumigatus): > 128 µg/mL
- MIC (Candida albicans [5]): > 128 µg/mL
- inhibition at 100 µM (Staphylococcus aureus [6]): 0%
- MIC (Pseudomonas aeruginosa [7]): > 64 µg/mL
- MIC (Salmonella typhimurium): > 64 µg/mL
- RFU [8]: -0.31
- MIC (Trichophyton rubrum): > 128 µg/mL
- Activity [9]: 0 mm
- MIC (Escherichia coli [10]): > 64 µg/mL
- MIC (Enterococcus faecalis [11]): > 64 µg/mL
- MIC (Staphylococcus aureus [12]): > 64 µg/mL
- Activity (Serratia marcescens): 0 mm
- Activity [13]: 0 mm
- fold change (FC) (Enterococcus faecalis [14]): 2
